# Results published in PubChem BioAssay AID2060326 (Molecular Pharmacology Branch, DTP, NCI, 2025).
# Tested on: MDA-MB-468 multi-cell spheroids, viability
# Assay: Anticancer human tumor MDA-MB-468 cell line growth inhibition [IpAb];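 further: spheroids exposed to agents for seven days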;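 on viability, T/C: 100% = DMSO vehicle control viability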
# Settings: for IC50: curve of first compound; for viability, T/C: stronger effect = lower value
# Source text: Combinatorial screen of targeted agents with ipatasertib and abemaciclib in multi-cell type tumor spheroids
# A high-throughput screen of multi-cell type tumor spheroids was designed to identify active combinations of targeted small molecules and ipatasertib or abemaciclib. Complex spheroids include a stromal component modeled by human endothelial cells (HUVEC) and fibroblasts modeled by human mesenchymal stem cells (MSCs). The concentration ranges selected for each drug and investigational agent were based upon clinically achievable concentrations if the clinical Cmax of the agent was known.
# Compounds. The drugs and investigational agents: ipatasertib (NSC767898), abemaciclib(NSC768073), selumetinib (NSC741078), trametinib (758246), adavosertib (NSC754352), everolimus (NSC733504), sapanisertib (NSC764658), vemurafenib (NSC761431), venetoclax (NSC766270), copanlisib (NSC809693), apelisib (NSC765974), palbociblib (NSC758247), vemurafenib (NSC761431), dabrafenib (NSC764134), ravoxertinib (NSC781343), BMS-387032 (NSC767048), sotorasib (NSC818433), talazoparib (NSC767125) and afursertib (NSC778305), were obtained from the National Cancer Institute (NCI) Developmental Therapeutics Program Chemical Repository. The FDA-approved anticancer drug set is available from the NCI Developmental Therapeutics Program. […] The stock solutions were prepared in dimethyl sulfoxide (DMSO, Sigma-Aldrich, St. Louis, MO, cat. D2650) at 800-fold the tested concentration and stored at -70 degrees C prior to their use. All drugs and investigational agents were tested over a range starting from a high concentration at or near the clinical Cmax and decreasing in half-log increments. If the clinical Cmax for an agent had not been determined, the highest concentration tested was 10 microM.
# NCI60 Cell Culture. NCI60 cell lines were obtained from the NCI Developmental Therapeutics Program Tumor Repository. For each lot of cells, the Repository performed Applied Biosystems AmpFLSTR Identifiler testing with PCR amplification to confirm consistency with the published Identifier STR profile for each cell line. Cells were kept in continuous culture for no more than 20 passages. The optimal seeding densities for each of the cell lines at each time point assessed were determined prior to performing the concentration response studies. Briefly, the NCI60 human tumor lines were grown as monolayers in RPMI 1640 medium supplemented with 10% FBS and 2 mmol/L L-glutamine.
# An additional 9 lines were from the NCI60 cell line panel including MDA-MB-231 breast carcinoma, MDA-MB-468 breast carcinoma, MCF7 breast carcinoma, Hs578T breast carcinoma, MALME-3M melanoma, SK-MEL-2 melanoma, SK-OV-3 ovarian carcinoma, DU-145 prostate carcinoma, PC-3 prostate carcinoma, all cell lines along with major genetic alterations are listed on Table 2. Pooled donor human umbilical vein endothelial cells (HUVEC, Lonza, cat. CC-2519) and human mesenchymal stem cells (hMSC, Lonza, cat. PT-2501) were purchased from Lonza (Walkersville, MD).
# PDMR cell lines were grown in complete medium (DC medium): Dulbecco's modified Eagle's medium (DMEM)/F12 supplemented with 5% fetal bovine serum (FBS), 2 mM L-glutamine, 100 U/mL penicillin and 100 µg/ml streptomycin, 0.4 µg/ml hydrocortisone, 10 ng/ml epidermal growth factor (EGF) recombinant human protein, 24 µg/mL adenine, and 0.1 mg/mL primocin. During culture from frozen stock vials, PDMR cells were cultured in the same medium containing 10 µM Y-27632 (see Table 3). The PDCs were cultured in complete DMEM/F12 media without 10 microM Y-27632 dihydrochloride for at least two passages prior to the screen. The pooled donor HUVEC and hMSC were cultured in endothelial cell growth medium 2 (PromoCell, Heidelberg, Germany, cat. C-22011) and mesenchymal stem cell growth medium 2 (PromoCell, cat. C-28009), respectively. For all experiments, HUVEC and hMSC were used at passages </=5.
# […]
# [1] = second compound 0.1 µM, first compound 0.0316 µM
# [2] = second compound 0.1 µM, first compound 0.1 µM
# [3] = second compound 0.1 µM, first compound 0.316 µM
# [4] = second compound 0.1 µM, first compound 1 µM
# [5] = second compound 0.316 µM, first compound 0.0316 µM
# [6] = second compound 0.316 µM, first compound 0.1 µM
# [7] = second compound 0.316 µM, first compound 0.316 µM
# [8] = second compound 0.316 µM, first compound 1 µM
# [9] = second compound 1 µM, first compound 0.0316 µM
# [10] = second compound 1 µM, first compound 0.1 µM
# [11] = second compound 1 µM, first compound 0.316 µM
# [12] = second compound 1 µM, first compound 1 µM
# [13] = second compound 3.16 µM, first compound 0.0316 µM
# [14] = second compound 3.16 µM, first compound 0.1 µM
# [15] = second compound 3.16 µM, first compound 0.316 µM
# [16] = second compound 3.16 µM, first compound 1 µM
# [17] = second compound 10 µM, first compound 0.0316 µM
# [18] = second compound 10 µM, first compound 0.1 µM
# [19] = second compound 10 µM, first compound 0.316 µM
# [20] = second compound 10 µM, first compound 1 µM
smiles,measurement,setting,value
CC(=O)c1c(C)c2cnc(Nc3ccc(N4CCNCC4)cn3)nc2n(C2CCCC2)c1=O + CC(C)NCC(C(=O)N1CCN(c2ncnc3c2C(C)CC3O)CC1)c1ccc(Cl)cc1,IC50,second compound 0.1 µM,> 300 nM
same,IC50,second compound 0.316 µM,> 300 nM
same,IC50,second compound 1 µM,4.44 nM
same,IC50,second compound 3.16 µM,< 0.949 nM
same,IC50,second compound 10 µM,< 0.949 nM
same,"viability, T/C","second compound 0.1 µM, first compound 0.000949 µM",87.4%
same,"viability, T/C","second compound 0.1 µM, first compound 0.003 µM",80.3%
same,"viability, T/C","second compound 0.1 µM, first compound 0.00949 µM",73.1%
same,"viability, T/C","second compound 0.1 µM, first compound 0.03 µM",81%
same,"viability, T/C","second compound 0.1 µM, first compound 0.0949 µM",71.4%
same,"viability, T/C","second compound 0.1 µM, first compound 0.3 µM",77.8%
same,"viability, T/C","second compound 0.316 µM, first compound 0.000949 µM",66.1%
same,"viability, T/C","second compound 0.316 µM, first compound 0.003 µM",61%
same,"viability, T/C","second compound 0.316 µM, first compound 0.00949 µM",57.4%
same,"viability, T/C","second compound 0.316 µM, first compound 0.03 µM",54.8%
same,"viability, T/C","second compound 0.316 µM, first compound 0.0949 µM",59.5%
same,"viability, T/C","second compound 0.316 µM, first compound 0.3 µM",59.5%
same,"viability, T/C","second compound 1 µM, first compound 0.000949 µM",57.9%
same,"viability, T/C","second compound 1 µM, first compound 0.003 µM",51.8%
same,"viability, T/C","second compound 1 µM, first compound 0.00949 µM",46.4%
same,"viability, T/C","second compound 1 µM, first compound 0.03 µM",48.1%
same,"viability, T/C","second compound 1 µM, first compound 0.0949 µM",49.6%
same,"viability, T/C","second compound 1 µM, first compound 0.3 µM",48.3%
same,"viability, T/C","second compound 3.16 µM, first compound 0.000949 µM",35.9%
same,"viability, T/C","second compound 3.16 µM, first compound 0.003 µM",36.4%
same,"viability, T/C","second compound 3.16 µM, first compound 0.00949 µM",31.9%
same,"viability, T/C","second compound 3.16 µM, first compound 0.03 µM",32.7%
same,"viability, T/C","second compound 3.16 µM, first compound 0.0949 µM",29.5%
same,"viability, T/C","second compound 3.16 µM, first compound 0.3 µM",29.8%
same,"viability, T/C","second compound 10 µM, first compound 0.000949 µM",18.6%
same,"viability, T/C","second compound 10 µM, first compound 0.003 µM",19.3%
same,"viability, T/C","second compound 10 µM, first compound 0.00949 µM",19.9%
same,"viability, T/C","second compound 10 µM, first compound 0.03 µM",17.5%
same,"viability, T/C","second compound 10 µM, first compound 0.0949 µM",17.3%
same,"viability, T/C","second compound 10 µM, first compound 0.3 µM",17.6%
COc1c(OCCCN2CCOCC2)ccc2c3n(c(=NC(=O)c4cnc(N)nc4)nc12)CCN3 + CC(C)NCC(C(=O)N1CCN(c2ncnc3c2C(C)CC3O)CC1)c1ccc(Cl)cc1,IC50,second compound 0.1 µM,83.7 nM
same,IC50,second compound 0.316 µM,33.8 nM
same,IC50,second compound 1 µM,< 3.16 nM
same,IC50,second compound 3.16 µM,< 3.16 nM
same,IC50,second compound 10 µM,< 3.16 nM
same,"viability, T/C","second compound 0.1 µM, first compound 0.00316 µM",98.4%
same,"viability, T/C","second compound 0.1 µM, first compound 0.01 µM",78.2%
same,"viability, T/C",[1],70.2%
same,"viability, T/C",[2],49.7%
same,"viability, T/C",[3],20.3%
same,"viability, T/C",[4],3.61%
same,"viability, T/C","second compound 0.316 µM, first compound 0.00316 µM",68.5%
same,"viability, T/C","second compound 0.316 µM, first compound 0.01 µM",56.1%
same,"viability, T/C",[5],54%
same,"viability, T/C",[6],36.3%
same,"viability, T/C",[7],18.1%
same,"viability, T/C",[8],2.31%
same,"viability, T/C","second compound 1 µM, first compound 0.00316 µM",51.3%
same,"viability, T/C","second compound 1 µM, first compound 0.01 µM",40.3%
same,"viability, T/C",[9],38.9%
same,"viability, T/C",[10],26.8%
same,"viability, T/C",[11],11.9%
same,"viability, T/C",[12],1.77%
same,"viability, T/C","second compound 3.16 µM, first compound 0.00316 µM",30.4%
same,"viability, T/C","second compound 3.16 µM, first compound 0.01 µM",26.5%
same,"viability, T/C",[13],23%
same,"viability, T/C",[14],19.1%
same,"viability, T/C",[15],9.55%
same,"viability, T/C",[16],1.46%
same,"viability, T/C","second compound 10 µM, first compound 0.00316 µM",16.1%
same,"viability, T/C","second compound 10 µM, first compound 0.01 µM",12.8%
same,"viability, T/C",[17],11%
same,"viability, T/C",[18],8.37%
same,"viability, T/C",[19],4.92%
same,"viability, T/C",[20],0.95%
Cc1nc(NC(=O)N2CCCC2C(N)=O)sc1-c1ccnc(C(C)(C)C(F)(F)F)c1 (stereo not given) + CC(C)NCC(C(=O)N1CCN(c2ncnc3c2C(C)CC3O)CC1)c1ccc(Cl)cc1,IC50,second compound 0.1 µM,5510 nM
same,IC50,second compound 0.316 µM,3820 nM
same,IC50,second compound 1 µM,< 31.6 nM
same,IC50,second compound 3.16 µM,< 31.6 nM
same,IC50,second compound 10 µM,< 31.6 nM
same,"viability, T/C",[1],82.6%
same,"viability, T/C",[2],75.6%
same,"viability, T/C",[3],79.1%
same,"viability, T/C",[4],75.6%
same,"viability, T/C","second compound 0.1 µM, first compound 3.16 µM",72.3%
same,"viability, T/C","second compound 0.1 µM, first compound 10 µM",26.3%
same,"viability, T/C",[5],61.5%
same,"viability, T/C",[6],61.1%
same,"viability, T/C",[7],58.9%
same,"viability, T/C",[8],53.7%
same,"viability, T/C","second compound 0.316 µM, first compound 3.16 µM",57.1%
same,"viability, T/C","second compound 0.316 µM, first compound 10 µM",16.3%
same,"viability, T/C",[9],47.8%
same,"viability, T/C",[10],45.7%
same,"viability, T/C",[11],48%
same,"viability, T/C",[12],36.8%
same,"viability, T/C","second compound 1 µM, first compound 3.16 µM",31.4%
same,"viability, T/C","second compound 1 µM, first compound 10 µM",8.2%
same,"viability, T/C",[13],32.6%
same,"viability, T/C",[14],30.6%
same,"viability, T/C",[15],25.5%
same,"viability, T/C",[16],20.8%
same,"viability, T/C","second compound 3.16 µM, first compound 3.16 µM",20.6%
same,"viability, T/C","second compound 3.16 µM, first compound 10 µM",4.36%
same,"viability, T/C",[17],16.3%
same,"viability, T/C",[18],14.8%
same,"viability, T/C",[19],13.2%
same,"viability, T/C",[20],10.3%
same,"viability, T/C","second compound 10 µM, first compound 3.16 µM",7.57%
same,"viability, T/C","second compound 10 µM, first compound 10 µM",1.53%
